Columns and labels:
[1] = biological target: orthosteric glutamate site of mGluR5 (Homo sapiens, UniProt P41594); settings: cited from earlier work
mGluR5 [2] = biological target: mGluR5 (Homo sapiens, UniProt P41594); settings: cited from earlier work
mGluR5 [3] = biological target: T1, mGluR5 (Rattus norvegicus, UniProt P31424); assay: mGluR5 assay on rat cultured cortical astrocytes (Ca2+ mobilization, FLIPR); assay type: cell-based; settings: for increase of 1 μM glutamate-induced Ca2+ mobilization: 3 μM compound, 1 μM glutamate (EC20), rat cultured astrocytes, FIG. 1; for agonistic activity in the absence of glutamate: no glutamate, compared to buffer value
T1 construct: a functional expression of mGluR5 receptors; endogenous in cells; host or cells: primary cortical astrocytes from Sprague-Dawley rat embryos (15 days), treated with bFGF and EGF
Procedure: For subsequent seeding, the FCS supplementation was reduced to 10%. After 12 days, cells were subplated by trypsinisation onto poly-D-lysine precoated 384-well plates at a density of 20.000 cells per well in culture buffer supplemented with […] βFGF (basic fibroblast growth factor) (Invitrogen, Basel, Switzerland) and 10 ng/ml EGF (epidermal growth factor) (Invitrogen, Basel, Switzerland).
After 60 min of loading with 4 uM Fluo-4 (TefLabs, Austin, Tex.), the cells were washed three times with 50 μl of PBS Buffer and resuspended in 45 μl of Assay Buffer. The plates were then transferred to a Fluorometric Imaging Plate Reader (FLIPR, Molecular Devices, Sunnyvale, Calif.) for the assessment of intracellular calcium flux. […] The final DMSO concentration in the assay was 0.3%. In each experiment, fluorescence was then monitored as a function of time for 3 minutes and the data analyzed using Microsoft Excel and GraphPad Prism. Each data point was also measured two times.
The concentration-response curves of representative compounds of the present invention in the presence of EC20 of glutamate were generated using the Prism GraphPad program (Graph Pad Software Inc, San Diego, USA).

T1 sequence (P31424 21-1203): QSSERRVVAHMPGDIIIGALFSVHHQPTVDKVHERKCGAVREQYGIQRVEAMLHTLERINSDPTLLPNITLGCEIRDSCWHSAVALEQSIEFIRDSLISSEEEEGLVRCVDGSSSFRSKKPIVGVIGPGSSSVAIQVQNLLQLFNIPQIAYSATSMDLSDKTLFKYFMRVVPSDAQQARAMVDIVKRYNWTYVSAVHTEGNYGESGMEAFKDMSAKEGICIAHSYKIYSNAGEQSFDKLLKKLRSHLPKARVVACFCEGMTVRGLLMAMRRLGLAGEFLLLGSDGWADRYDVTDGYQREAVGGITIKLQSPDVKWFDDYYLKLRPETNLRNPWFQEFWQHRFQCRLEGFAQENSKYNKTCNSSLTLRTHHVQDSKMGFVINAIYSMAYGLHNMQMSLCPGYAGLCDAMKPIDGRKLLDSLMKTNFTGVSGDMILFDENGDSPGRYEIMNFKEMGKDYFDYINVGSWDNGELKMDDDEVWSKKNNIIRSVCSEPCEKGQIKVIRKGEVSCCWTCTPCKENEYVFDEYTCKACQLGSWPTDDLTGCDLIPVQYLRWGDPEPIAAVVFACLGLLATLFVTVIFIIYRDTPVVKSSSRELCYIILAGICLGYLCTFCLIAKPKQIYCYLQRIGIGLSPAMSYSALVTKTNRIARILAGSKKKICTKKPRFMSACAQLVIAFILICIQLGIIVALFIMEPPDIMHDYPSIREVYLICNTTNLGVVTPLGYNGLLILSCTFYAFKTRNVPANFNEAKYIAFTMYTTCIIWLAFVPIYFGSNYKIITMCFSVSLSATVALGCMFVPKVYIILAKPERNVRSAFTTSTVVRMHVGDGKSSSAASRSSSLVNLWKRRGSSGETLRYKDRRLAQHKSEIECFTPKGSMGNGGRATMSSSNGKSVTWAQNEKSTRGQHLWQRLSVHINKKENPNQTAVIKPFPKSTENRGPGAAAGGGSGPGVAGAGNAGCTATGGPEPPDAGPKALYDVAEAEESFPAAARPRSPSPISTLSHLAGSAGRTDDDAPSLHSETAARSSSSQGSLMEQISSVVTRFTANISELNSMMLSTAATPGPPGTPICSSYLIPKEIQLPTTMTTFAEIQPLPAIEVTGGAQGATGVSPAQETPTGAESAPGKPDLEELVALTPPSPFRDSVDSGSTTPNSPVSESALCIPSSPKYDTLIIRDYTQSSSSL
Chain of mGluR5 (Homo sapiens, UniProt P41594) (P41594 21-1212): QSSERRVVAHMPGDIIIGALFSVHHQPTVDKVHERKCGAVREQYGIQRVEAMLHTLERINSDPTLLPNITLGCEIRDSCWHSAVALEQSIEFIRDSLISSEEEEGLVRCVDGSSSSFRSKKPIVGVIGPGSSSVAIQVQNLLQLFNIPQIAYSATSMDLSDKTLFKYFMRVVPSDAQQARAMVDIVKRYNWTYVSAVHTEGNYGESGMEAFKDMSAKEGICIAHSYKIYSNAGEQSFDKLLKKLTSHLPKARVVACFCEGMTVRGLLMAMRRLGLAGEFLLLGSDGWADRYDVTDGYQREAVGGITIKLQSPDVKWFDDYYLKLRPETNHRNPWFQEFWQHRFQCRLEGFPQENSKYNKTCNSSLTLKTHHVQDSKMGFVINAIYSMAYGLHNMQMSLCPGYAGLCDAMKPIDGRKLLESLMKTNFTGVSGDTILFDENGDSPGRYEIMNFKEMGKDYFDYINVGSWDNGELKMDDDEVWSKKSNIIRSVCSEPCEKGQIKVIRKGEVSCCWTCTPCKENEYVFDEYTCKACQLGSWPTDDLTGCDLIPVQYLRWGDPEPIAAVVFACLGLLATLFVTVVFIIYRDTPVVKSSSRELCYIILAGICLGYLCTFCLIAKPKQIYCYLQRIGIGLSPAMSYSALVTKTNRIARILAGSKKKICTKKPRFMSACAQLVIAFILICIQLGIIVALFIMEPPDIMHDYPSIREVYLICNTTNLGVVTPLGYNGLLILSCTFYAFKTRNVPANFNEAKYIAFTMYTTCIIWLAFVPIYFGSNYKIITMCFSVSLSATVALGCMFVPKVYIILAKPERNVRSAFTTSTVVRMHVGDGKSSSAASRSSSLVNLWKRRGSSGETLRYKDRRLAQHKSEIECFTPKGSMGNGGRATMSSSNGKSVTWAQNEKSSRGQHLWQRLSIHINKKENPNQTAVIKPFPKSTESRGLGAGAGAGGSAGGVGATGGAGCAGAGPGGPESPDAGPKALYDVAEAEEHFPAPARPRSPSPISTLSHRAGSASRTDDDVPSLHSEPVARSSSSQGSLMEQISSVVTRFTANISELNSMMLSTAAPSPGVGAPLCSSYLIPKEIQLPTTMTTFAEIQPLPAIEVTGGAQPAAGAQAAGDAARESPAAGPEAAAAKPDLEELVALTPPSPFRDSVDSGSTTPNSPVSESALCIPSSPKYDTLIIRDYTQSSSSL
Chain of orthosteric glutamate site of mGluR5 (P41594 21-1212): as above

Row | increase of 1 μM glutamate-induced Ca2+ mobilization (mGluR5 [3]) | Compound | inhibition of the binding of [3H]-quisqualate to the orthosteric glutamate site [1] | in vitro potency as mGluR5 positive allosteric modulator (mGluR5 [2]) | agonistic activity in the absence of glutamate (mGluR5 [3])
1 |  | Fc1cccc(C=NN=Cc2cccc(F)c2)c1 [DFB, 3,3′-Difluorobenzaldazine] | not able to inhibit | low in vitro potency | 
2 | increase | O=C(c1ccc(F)cc1)N1CCC[C@H](c2nc(-c3ccccn3)no2)C1 [Example 56, (4-Fluoro-phenyl)-[(S)-3-(3-pyridin-2-yl-[1,2,4]oxadiazol-5-yl)-piperidin-1-yl]-methanone] |  |  | no statistically significant agonistic activity
3 | increase | O=C(c1ccc(F)cc1)N1CCC[C@H](c2nc(-c3ccccc3F)no2)C1 [Example 55, (4-Fluoro-phenyl)-{(S)-3-[3-(2-fluoro-phenyl)-[1,2,4]oxadiazol-5-yl]-piperidin-1-yl}-methanone] |  |  | no statistically significant agonistic activity

From US8163775B2, “Allosteric modulators of metabotropic glutamate receptors” (Addex Pharma SA, priority 2003, dated 2012)
